The source of these data is PMC11040670, “Mechanistic and Kinetic Insights into Cellular Uptake of Biomimetic Dinitrosyl Iron Complexes and Intracellular Delivery of NO for Activation of Cytoprotective HO-1” (JACS Au, 2024).

One series relates to MSC/N2a/HCEC. The series can be described thus: Whole-cell EPR, results stated jointly for MSC/N2a/HCEC. In kind it is cell-based. To be noted: for tmax for cellular uptake: stated jointly for MSC/N2a/HCEC. Here is the method:
Cellular uptake of DNIC–COOH and intracellular formation/decomposition of mononuclear DNICs in MSC/N2a/HCEC cells were investigated using EPR spectroscopy. Briefly, cells were seeded into two (or one) 100 mm dish(es) at a density of 2 × 10^6 cells/dish and incubated at 37 °C overnight. On the next day, cells were treated with 100 μM of DNIC–COOH (or 100 μM of DNIC–COOH to N2a and 75 μM of DNIC–COOH to HCEC) and incubated for 0, 0.5, 1, 2, 3, 4, 8, and 24 h, respectively. After removal of the supernatant solution, cells were washed with DPBS before addition of 1 mL of trypsin (0.05%)/EDTA (0.53 mM) and incubation for 5 min at 37 °C. After the obtained cell suspension solutions from two 100 mm dishes were combined and centrifuged at 100g for 5 min, the supernatant was removed before addition of 100 μL of αMEM to DNIC-treated MSC (or MEM to DNIC-treated N2a and HSFM to DNIC-treated HCEC). This solution was then transferred into EPR quartz tube and frozen in N2(l) before the EPR measurements. For each measured EPR spectrum, double integration was executed to obtain the integrated EPR intensity under each condition. Moreover, time-dependent decay of integrated EPR signal intensity after treatment of DNIC–COOH was fit to pseudo-first-order kinetics in order to determine the intracellular half-life for EPR-active mononuclear DNIC. Three independent experiments were executed to measure the average half-life for intracellular decomposition of EPR-active mononuclear DNIC after treatment with DNIC–COOH at 37 °C. On the other hand, at the time point with maximum integrated EPR signal intensity, spin quantitation of intracellular EPR-active DNICs was performed using mononuclear DNIC [PPN][(NO)2Fe(S5)] as a standard according to the methodology used in the previous work.[50] Cellular uptake of DNIC–COOMe (2.5 μM to MSC, 10 μM to N2a, or 1 μM to HCEC) and intracellular formation/decomposition of EPR-active mononuclear DNICs were investigated using EPR spectroscopy in a similar manner. […]

The test system of a further series is HO-1 protein. The series can be described thus: ELISA of intracellular HO-1 protein in MSC. In kind it is cell-based, human. Here is the method: After the treatments of DNIC–COOH/DNIC–COOMe to the MSC cells following the procedure described above, the intracellular level of HO-1 protein in DNIC-treated MSC cells was also determined by ELISA (Abcam, Cambridge, MA) according to the manufacturers’ protocols.

The next series relates to HMOX1 gene. The series can be described thus: Real-time PCR of HMOX1 gene in MSC. Particulars: at 3 h, 100 μM DNIC–COOH or 2.5 μM DNIC–COOMe. In kind it is cell-based, human. Here is the method:
After treatment of (1) 100 μM of DNIC–COOH to MSC, (2) 100 μM of DNIC–COOH to N2a, (3) 75 μM of DNIC–COOH to HCEC, (4) 2.5 μM of DNIC–COOMe to MSC, (5) 10 μM of DNIC–COOMe to N2a, and (6) 1 μM of DNIC–COOMe to HCEC, respectively, the total RNA of the treated cells was extracted using TRIzol Reagent (Thermo Fisher Scientific) in order to assess the time-dependent change in the mRNA level of HO-1. After the synthesis of complementary DNA with the High-Capacity Reverse Transcription Kit, qPCR was conducted using Power SYBR Green PCR Master Mix with the StepOnePlus Real-Time PCR System (Thermo Fisher Scientific). […] The relative mRNA levels of target genes were determined by a comparative threshold cycle method and normalized to that of RPL13A (or GAPDH). The mRNA level of HO-1 in the MSC, N2a, and HCEC cells, respectively, that received the (1) sequential treatments of 1H-[1,2,4]oxadiazolo-[4,3-a]quinoxalin-1-one (ODQ, 10 μM for 1 h) and DNIC–COOH (100 μM in MSC for 3 h, 100 μM in N2a for 10 h, and 75 μM in HCEC for 6 h) or (2) cotreatment of 2-phenyl-4,4,5,5-tetramethylimidazoline-1-oxyl-3-oxide (PTIO, 100 μM in MSC, 200 μM in N2a, and 100 μM in HCEC) and DNIC–COOH (100 μM in MSC for 3 h, 100 μM in N2a for 10 h, and 75 μM in HCEC for 6 h) was also evaluated under a similar procedure.
On the technique in general: Quantitative PCR measures a nucleic acid by following its amplification.

A further series concerns cGMP. The series can be described thus: DNIC-induced cGMP formation in MSC (confocal immunofluorescence). In kind it is cell-based, human. To be noted: 100 μM DNIC–COOH or 2.5 μM DNIC–COOMe, 2 h. Here is the method:
The MSC cells were plated on a cover glass (18 mm in diameter) loaded into a 24-well plate at a density of 1.7 × 10^3 cells/well until the desired confluency was reached. After the culture media were removed, 100 μM of DNIC–COOH (or 2.5 μM of DNIC–COOMe) was added to the cell culture and incubated for 2 h. The culture media were removed before the MSC cells were washed three times with PBS, whereas the washed MSC cells were further fixed with 4% paraformaldehyde (PFA) solution for 15 min at room temperature. After the PFA solution was removed, the MSC cells were washed twice with PBS for 3 min and permeabilized using 0.1% Triton X-100 (in PBS) at room temperature for 4 min. Subsequently, the MSC cells were washed twice with PBS for 3 min and incubated with a blocking buffer (2.5% BSA in PBS) at room temperature for 30 min. Then, the MSC cells were incubated with primary antibody solution (1:1000 for rabbit anti-cGMP antibody, purchased from Biorbyt, Cambridge, U.K.) at room temperature for 1 h before the MSC cells were washed three times with PBS for 3 min. Cover glasses containing the fixed MSC cells were mounted onto a microscope slide loaded with Fluoroshield mounting medium with DAPI to stain the nuclei before the optical images were captured using a confocal imaging system (Leica TCS-SP-X AOBS).

Consider `O=[N][Fe]1([N]=O)[SH](CCC(=O)O)[Fe]([N]=O)([N]=O)[SH]1CCC(=O)O` (stereo not drawn) [DNIC–COOH, [(NO)2Fe(μ-SCH2CH2COOH)2Fe(NO)2]], for which the “tmax for cellular uptake” value with MSC/N2a/HCEC was in the range of 120 to 480 min. Also, in the series on HO-1 protein (at 8 h, 100 μM DNIC–COOH), the “expression of HO-1 protein” value is on record as 32.0 ± 4.4 fold. For the same compound, the “activation of HMOX1 gene” value in the series with HMOX1 gene amounted to 49.5 ± 2.9 fold. Besides, in the series on cGMP, the “formation of cGMP” value was “elevated formation of cGMP”.

Turning to `COC(=O)CC[SH]1[Fe]([N]=O)([N]=O)[SH](CCC(=O)OC)[Fe]1([N]=O)[N]=O` (stereo not drawn) [DNIC–COOMe, [(NO)2Fe(μ-SCH2CH2COOCH3)2Fe(NO)2]], the “tmax for intracellular assembly of mononuclear DNICs” value in the series on MSC/N2a/HCEC (MSC/N2a/HCEC, hypoxia) amounted to 30 min. In addition, the “tmax for cellular uptake” value in the series on MSC/N2a/HCEC turned out to be 30 min. The “expression of HO-1 protein” value with HO-1 protein (at 6 h, 2.5 μM DNIC–COOMe) came out at 8.1 ± 0.9 fold. The “activation of HMOX1 gene” value in the series on HMOX1 gene is given as 18.8 ± 2.3 fold. For the same compound, the “formation of cGMP” value in the series on cGMP is given as “elevated formation of cGMP”.
